Experimental data published in paper PMC5290327, “SC83288 is a clinical development candidate for the treatment of severe malaria” (Nature Communications, 2017).
In brackets after ≈: the same amount, converted by molar mass. Several values for one entry are separate records, joined by “and”; a condition that tells them apart may be missing. Equal values may be shown once. Entries after “also recorded” stand apart in the source; their conditions may differ.

What was measured:
P. falciparum strain D10 = experiment: Growth inhibition assay; type: cell-based; details: Plasmodium falciparum
MC4 (h) = target: T1, MC4 (h) (Homo sapiens, UniProt P32245); experiment: Radioligand binding
T1 construct: Cerep

[1] = system: cytoplasmic free Ca2+ in P. falciparum HB3 trophozoites; experiment: Ca2+ live imaging, Fluo-4; details: SC compounds 10 and 20 μM; CPA 10 μM
Permeability assay = type: in vitro ADME; details: human; CACO 2 cells, 10 μM, apical side, 2 h
Protocol: The study was conducted by Cyprotex (Macclesfield, United Kingdom). CACO 2 cells (Sigma-Aldrich, catalogue: 86010202) were seeded on Millipore Millicell plates and formed a confluent monolayer over 20 days before the experiment. On day 20, the tested compounds at a final concentration of 10 μM were added to the apical side of the membrane. The transport of the compound across the monolayer was monitored over a 2 h period by liquid chromatography (LC)–MS/MS quantification. The permeability coefficient (Papp) was calculated from the following equation: [drawing 1] , where dQ/dt is the rate of permeation of the drug across the cells, C0 the donor compartment concentration at time zero and A the area of the cell monolayer. C0 was obtained from analysis of the dosing solution at the start of the experiment.

Balb C 3T3 cells = experiment: Cytotoxicity; details: 50 μM
[2] = In vitro metabolism in liver microsomes; details: rat liver microsomes, 10 μM
dopamine transporter (h) = target: T2, dopamine transporter (h) (Homo sapiens, UniProt Q01959); experiment: Radioligand binding
T2 construct: Cerep (contract screening)

[3] = system: Dd2 P. falciparum parasites; experiment: In vitro parasite reduction ratio assay (Sanz protocol); type: cell-based, Plasmodium falciparum; details: for In vitro PCT99.9% / In vitro lag phase: 10 times IC50, Dd2; for parasites killed within the first 48 h of treatment: in vitro assay and NSG mouse model
[4] = target: T3, norepinephrine transporter (h) (Homo sapiens, UniProt P23975); experiment: Radioligand binding
T3 construct: Cerep (contract screening)

CYP2C9 = CYP2C9 (Homo sapiens, UniProt P11712); experiment: CYP inhibition, human liver microsomes; details: CYP2C9, tolbutamide to OH-tolbutamide, 10 µM
A2A (h) = target: T4, A2A (h) (Homo sapiens, UniProt P29274); experiment: Radioligand binding
T4 construct: Cerep (contract study)

Plasmodium vinckei = experiment: Rodent malaria model; type: in vivo
Text: The two SC compounds were also active in the Plasmodium vinckei rodent malaria model system.

NTS1 (NT1) (h) = target: T5, NTS1 (NT1) (h) (Homo sapiens, UniProt P30989); experiment: Radioligand binding
T5 construct: Cerep

CYP1A2 = CYP1A2 (Homo sapiens, UniProt P05177); experiment: CYP inhibition, human liver microsomes; details: CYP1A2, melatonin to 6-OH-melatonin, 10 µM
CYP2C8 = CYP2C8 (Homo sapiens, UniProt P10632); experiment: CYP inhibition, human liver microsomes; details: CYP2C8, amodiaquine to Desethylamodiaquine, 10 µM
Plasmodium berghei = experiment: Ex vivo one-cycle growth inhibition assay; type: cell-based
Protocol: This was the case for both an in vivo 4 day dosing regimen of 30 mg kg^−1 per day and an ex vivo one-cycle growth inhibition assay. […] Differential therapeutic efficacy in various rodent model systems is a well-established phenomenon and is typically associated with charged compounds, such as positively charged amidines and negatively charged phosphoric acid or carboxylic acid containing drugs. The phenomenon is explained based on selective uptake of charged compounds through parasite-induced channels, termed new permeation pathways, in the host cell plasma membrane and species-specific characteristics of the new permeation pathways.

H1 (h) = target: T6, H1 (h) (Homo sapiens, UniProt P35367); type: binding
T6 construct: Cerep

MT1 (ML1A) (h) = target: T7, MT1 (ML1A) (h) (Homo sapiens, UniProt P48039); experiment: Radioligand binding
T7 construct: Cerep

KV channel = experiment: Radioligand binding
[5] = In vitro metabolism in liver microsomes; details: monkey liver microsomes, 10 μM
[6] = system: 13 human cytochrome P450 enzymes; experiment: Inhibition of cytochrome P450 enzymes, whole panel; details: 10 μM
Y1 (h) = target: T8, Y1 (h) (Homo sapiens, UniProt P25929); experiment: Radioligand binding
T8 construct: Cerep

NOP (ORL1) (h) = target: T9, NOP (ORL1) (h) (Homo sapiens, UniProt P41146); experiment: Radioligand binding
T9 construct: Cerep

[7] = system: P. falciparum strain Thai19; experiment: Growth inhibition assay; type: cell-based; details: Plasmodium falciparum
5-HT6 (h) = target: T10, 5-HT6 (h) (Homo sapiens, UniProt P50406); experiment: Radioligand binding
T10 construct: Cerep (contract screening)

CYP3A4 = CYP3A4 (Homo sapiens, UniProt P08684); experiment: CYP inhibition, human liver microsomes; details: 10 µM
AT1 (h) = target: T11, AT1 (h) (Homo sapiens, UniProt P30556); experiment: Radioligand binding
T11 construct: Cerep (contract study)

[8] = system: human peripheral blood macrophages; experiment: Cytotoxicity; details: 50 μM
5-HT transporter (h) = target: T12, 5-HT transporter (h) (Homo sapiens, UniProt P31645); experiment: Radioligand binding
T12 construct: Cerep (contract screening)

b2 (h) = target: T13, b2 (h) (Homo sapiens, UniProt P30411); type: binding
T13 construct: Cerep (contract study)

Cl- channel (GABA-gated) = experiment: Radioligand binding
HepG2 cells = experiment: Cytotoxicity; details: 50 μM
Solubility in water = details: water
[9] = CYP3A4a, midazolam to 1'-OH-midazolam
[10] = CYP3A4b, testosterone to 6β-OH-testosterone
[11] = CYP3A4c, omeprazole to omeprazole sulphone
[12] = CYP3A4d, omeprazole to 3-OH-omeprazole
[13] = P. vinckei, 30 mg kg-1 i.p. 1x4 days

Chain of CYP3A4 (P08684 whole entry): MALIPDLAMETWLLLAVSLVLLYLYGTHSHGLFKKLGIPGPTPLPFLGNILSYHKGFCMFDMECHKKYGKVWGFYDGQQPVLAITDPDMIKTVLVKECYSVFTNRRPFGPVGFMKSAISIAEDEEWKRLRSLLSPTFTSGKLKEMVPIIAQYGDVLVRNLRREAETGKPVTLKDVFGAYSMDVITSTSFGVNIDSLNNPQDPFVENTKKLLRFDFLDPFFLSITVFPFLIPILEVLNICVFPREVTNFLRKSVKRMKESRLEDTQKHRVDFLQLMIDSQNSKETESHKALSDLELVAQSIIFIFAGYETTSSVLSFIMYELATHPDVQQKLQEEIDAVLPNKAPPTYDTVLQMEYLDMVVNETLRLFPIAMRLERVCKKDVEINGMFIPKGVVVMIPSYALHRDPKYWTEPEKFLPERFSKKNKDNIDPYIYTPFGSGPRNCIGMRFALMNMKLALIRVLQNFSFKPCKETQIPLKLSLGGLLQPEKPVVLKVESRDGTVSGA
T13 sequence (P30411 whole entry): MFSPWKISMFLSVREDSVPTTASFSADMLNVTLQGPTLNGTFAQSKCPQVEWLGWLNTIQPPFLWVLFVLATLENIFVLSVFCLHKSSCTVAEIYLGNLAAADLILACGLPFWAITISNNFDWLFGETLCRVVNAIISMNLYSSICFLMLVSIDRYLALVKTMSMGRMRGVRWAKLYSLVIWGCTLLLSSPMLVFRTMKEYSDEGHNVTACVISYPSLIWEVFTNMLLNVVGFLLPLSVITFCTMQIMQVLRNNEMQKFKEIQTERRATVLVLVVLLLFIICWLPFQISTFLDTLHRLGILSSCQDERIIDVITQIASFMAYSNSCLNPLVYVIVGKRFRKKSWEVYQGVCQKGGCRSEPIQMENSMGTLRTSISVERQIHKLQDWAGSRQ
T6 sequence (P35367 whole entry): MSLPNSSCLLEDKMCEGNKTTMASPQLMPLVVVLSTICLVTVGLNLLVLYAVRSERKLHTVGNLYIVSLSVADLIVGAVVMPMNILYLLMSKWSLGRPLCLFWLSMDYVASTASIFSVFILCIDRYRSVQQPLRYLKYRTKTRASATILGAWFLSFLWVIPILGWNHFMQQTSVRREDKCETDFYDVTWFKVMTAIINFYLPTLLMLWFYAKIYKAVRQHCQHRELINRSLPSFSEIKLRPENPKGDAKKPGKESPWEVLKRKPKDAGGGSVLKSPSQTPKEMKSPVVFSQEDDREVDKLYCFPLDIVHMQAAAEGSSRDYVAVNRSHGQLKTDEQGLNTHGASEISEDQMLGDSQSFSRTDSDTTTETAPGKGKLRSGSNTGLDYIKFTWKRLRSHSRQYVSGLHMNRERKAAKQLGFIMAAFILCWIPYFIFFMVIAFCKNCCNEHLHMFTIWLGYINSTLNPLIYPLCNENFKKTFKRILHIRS
T10 sequence (P50406 whole entry): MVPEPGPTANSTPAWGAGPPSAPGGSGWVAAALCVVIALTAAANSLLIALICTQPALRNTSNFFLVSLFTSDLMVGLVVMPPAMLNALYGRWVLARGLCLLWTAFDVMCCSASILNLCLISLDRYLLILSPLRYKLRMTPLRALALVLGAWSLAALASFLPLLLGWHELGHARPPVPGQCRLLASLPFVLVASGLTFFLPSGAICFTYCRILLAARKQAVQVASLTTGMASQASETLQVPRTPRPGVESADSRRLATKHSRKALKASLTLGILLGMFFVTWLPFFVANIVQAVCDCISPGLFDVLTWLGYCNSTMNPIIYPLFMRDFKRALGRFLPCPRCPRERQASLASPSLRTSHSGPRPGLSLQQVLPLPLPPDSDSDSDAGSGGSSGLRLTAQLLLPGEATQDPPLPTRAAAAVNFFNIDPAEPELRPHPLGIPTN
T7 sequence (P48039 whole entry): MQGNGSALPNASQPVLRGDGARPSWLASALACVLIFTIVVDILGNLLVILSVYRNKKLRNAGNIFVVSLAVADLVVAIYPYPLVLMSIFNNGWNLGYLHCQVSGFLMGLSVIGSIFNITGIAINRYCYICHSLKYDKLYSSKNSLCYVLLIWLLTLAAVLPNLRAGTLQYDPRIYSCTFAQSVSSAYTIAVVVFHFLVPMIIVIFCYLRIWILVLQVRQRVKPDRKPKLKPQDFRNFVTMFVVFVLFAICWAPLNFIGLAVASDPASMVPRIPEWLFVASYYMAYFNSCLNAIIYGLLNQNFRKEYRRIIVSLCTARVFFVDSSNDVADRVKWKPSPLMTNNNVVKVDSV
Chain of CYP2C9 (P11712 whole entry): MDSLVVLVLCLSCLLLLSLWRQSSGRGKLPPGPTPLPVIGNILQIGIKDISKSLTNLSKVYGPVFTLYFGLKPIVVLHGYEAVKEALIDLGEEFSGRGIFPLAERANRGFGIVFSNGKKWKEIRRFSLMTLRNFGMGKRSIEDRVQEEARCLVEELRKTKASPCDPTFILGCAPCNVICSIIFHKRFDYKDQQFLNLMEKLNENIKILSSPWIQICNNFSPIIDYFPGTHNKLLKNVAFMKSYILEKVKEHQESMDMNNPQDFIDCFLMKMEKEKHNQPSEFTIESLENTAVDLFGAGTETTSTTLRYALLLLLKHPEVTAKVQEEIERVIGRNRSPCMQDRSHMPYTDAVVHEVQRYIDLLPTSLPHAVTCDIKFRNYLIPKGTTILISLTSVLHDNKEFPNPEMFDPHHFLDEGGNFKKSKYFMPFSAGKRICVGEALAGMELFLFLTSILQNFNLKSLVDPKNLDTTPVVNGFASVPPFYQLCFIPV
T9 sequence (P41146 whole entry): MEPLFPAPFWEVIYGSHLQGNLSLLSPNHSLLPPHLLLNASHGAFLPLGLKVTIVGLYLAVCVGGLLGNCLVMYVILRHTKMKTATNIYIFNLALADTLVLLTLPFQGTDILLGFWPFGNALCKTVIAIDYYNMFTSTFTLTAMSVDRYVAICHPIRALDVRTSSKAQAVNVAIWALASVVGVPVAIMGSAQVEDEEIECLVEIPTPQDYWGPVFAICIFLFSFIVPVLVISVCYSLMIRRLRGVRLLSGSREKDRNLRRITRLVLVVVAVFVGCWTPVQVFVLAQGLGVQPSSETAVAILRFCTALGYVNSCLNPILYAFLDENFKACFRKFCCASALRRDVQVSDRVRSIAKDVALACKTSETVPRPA
T2 sequence (Q01959 whole entry): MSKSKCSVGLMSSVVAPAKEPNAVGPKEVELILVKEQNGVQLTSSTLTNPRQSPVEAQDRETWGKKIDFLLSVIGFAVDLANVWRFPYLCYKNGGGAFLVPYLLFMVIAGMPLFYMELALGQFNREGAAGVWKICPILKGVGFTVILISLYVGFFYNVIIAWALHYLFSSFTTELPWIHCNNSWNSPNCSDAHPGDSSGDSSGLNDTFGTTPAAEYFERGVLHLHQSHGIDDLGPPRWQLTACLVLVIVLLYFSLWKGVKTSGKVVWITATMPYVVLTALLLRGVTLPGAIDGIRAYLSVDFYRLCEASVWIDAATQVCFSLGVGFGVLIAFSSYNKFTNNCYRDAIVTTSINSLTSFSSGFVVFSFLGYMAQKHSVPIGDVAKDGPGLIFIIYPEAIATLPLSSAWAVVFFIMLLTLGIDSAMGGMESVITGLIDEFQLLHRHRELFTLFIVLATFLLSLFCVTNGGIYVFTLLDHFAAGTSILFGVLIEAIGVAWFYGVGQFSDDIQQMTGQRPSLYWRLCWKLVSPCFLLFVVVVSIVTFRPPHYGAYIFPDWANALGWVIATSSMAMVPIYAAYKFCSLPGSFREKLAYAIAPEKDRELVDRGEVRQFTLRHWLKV
T1 sequence (P32245 whole entry): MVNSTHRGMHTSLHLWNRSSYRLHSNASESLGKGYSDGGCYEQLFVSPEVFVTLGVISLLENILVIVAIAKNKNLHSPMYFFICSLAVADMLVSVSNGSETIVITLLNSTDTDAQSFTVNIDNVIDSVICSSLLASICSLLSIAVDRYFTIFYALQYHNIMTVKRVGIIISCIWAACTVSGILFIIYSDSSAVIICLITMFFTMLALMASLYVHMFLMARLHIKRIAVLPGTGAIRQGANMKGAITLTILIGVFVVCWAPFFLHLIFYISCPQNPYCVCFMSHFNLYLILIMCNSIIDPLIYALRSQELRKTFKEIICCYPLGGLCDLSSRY
T4 sequence (P29274 whole entry): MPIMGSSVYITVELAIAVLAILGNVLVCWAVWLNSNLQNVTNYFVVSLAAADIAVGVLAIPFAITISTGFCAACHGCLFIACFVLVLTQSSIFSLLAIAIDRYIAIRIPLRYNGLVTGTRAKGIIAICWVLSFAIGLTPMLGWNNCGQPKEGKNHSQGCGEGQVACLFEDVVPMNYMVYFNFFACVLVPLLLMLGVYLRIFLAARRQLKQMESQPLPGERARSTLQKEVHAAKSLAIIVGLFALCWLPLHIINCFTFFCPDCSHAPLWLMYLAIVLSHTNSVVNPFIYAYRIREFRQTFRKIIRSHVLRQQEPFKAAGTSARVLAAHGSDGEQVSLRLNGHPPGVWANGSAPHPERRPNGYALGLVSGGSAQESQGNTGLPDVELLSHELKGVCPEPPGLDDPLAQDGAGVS
T11 sequence (P30556 whole entry): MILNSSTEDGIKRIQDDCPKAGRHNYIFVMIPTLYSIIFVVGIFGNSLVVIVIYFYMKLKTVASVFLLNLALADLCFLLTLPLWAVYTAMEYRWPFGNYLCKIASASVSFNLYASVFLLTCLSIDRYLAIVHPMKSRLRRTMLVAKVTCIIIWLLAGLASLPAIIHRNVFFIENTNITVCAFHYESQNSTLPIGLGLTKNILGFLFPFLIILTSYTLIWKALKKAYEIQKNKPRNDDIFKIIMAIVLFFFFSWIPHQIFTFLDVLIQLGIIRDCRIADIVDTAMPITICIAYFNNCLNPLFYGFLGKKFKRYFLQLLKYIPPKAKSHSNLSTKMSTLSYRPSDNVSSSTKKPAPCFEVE

Structure (SMILES)	IC50 (P. falciparum strain D10)	Inhibition of control specific binding (MC4 (h))	effect on cytoplasmic free Ca^2+ [1]	Papp at 2 h, 10 μM (Permeability assay)	in vitro propagation / cytotoxicity (Balb C 3T3 cells)	remaining after 60 min of incubation [2]	Inhibition of control specific binding (dopamine transporter (h))	In vitro PCT99.9% [3]	In vitro lag phase [3]	parasites killed within the first 48 h of treatment [3]	Inhibition of control specific binding [4]	Remaining enzyme activity (CYP2C9)	Inhibition of control specific binding (A2A (h))	Inhibition of control specific binding (NTS1 (NT1) (h))	Remaining enzyme activity (CYP1A2)	Remaining enzyme activity (CYP2C8)	activity, ex vivo one-cycle growth inhibition assay (Plasmodium berghei)	Inhibition of control specific binding (H1 (h))	Inhibition of control specific binding (MT1 (ML1A) (h))	Inhibition of control specific binding (KV channel)	further results
COC(=O)N1CCN(C(=N)c2cccc(NC(=O)Nc3ccc(S(=O)(=O)NCc4ccc(S(N)(=O)=O)cc4)cc3)c2)CC1 [SC83288, methyl 4-(imino(3-(3-(4-(N-(4-sulfamoylbenzyl)sulfamoyl)phenyl)ureido)phenyl)methyl) piperazine-1-carboxylate]	5 ± 1 nM	4%	did not affect	0.42 ×10⁻⁶ cm/s	did not affect	91%	82%	51±6 h and 51±6 (4) h	<5 h	≥ 99.9%	59%	103%	13%	1%	97%	89%	inactive	8%	-16%	2%	Outcome (Plasmodium vinckei; P. vinckei, 20 mg kg-1 i.p. 1x4 days): complete clearance, no recrudescence; also recorded: fully cured the infection; remaining after 60 min of incubation [5]: 51%; inhibition potential towards 13 human cytochrome P450 enzymes [6]: low; Inhibition of control specific binding (Y1 (h)): 0%; Inhibition of control specific binding (NOP (ORL1) (h)): 10%; IC50 [7]: 4 ± 1 nM; Inhibition of control specific binding (5-HT6 (h)): 11%; Remaining enzyme activity (CYP3A4; [9]): 92%; Remaining enzyme activity (CYP3A4; [10]): 88%; Remaining enzyme activity (CYP3A4; [11]): 87%; Remaining enzyme activity (CYP3A4; [12]): 92%; Inhibition of control specific binding (AT1 (h)): 6%; in vitro propagation / cytotoxicity [8]: did not affect; Inhibition of control specific binding (5-HT transporter (h)): 38%; Inhibition of control specific binding (b2 (h)): -4%; Inhibition of control specific binding (Cl- channel (GABA-gated)): -37%; in vitro propagation / cytotoxicity (HepG2 cells): did not affect; solubility (Solubility in water): 940 µg/mL (≈ 1490 µM)
CCCCN1CCN(C(=N)c2cccc(NC(=O)Nc3ccc(S(=O)(=O)NCc4ccc(S(N)(=O)=O)cc4)cc3)c2)CC1 [SC81458, 4-(3-(3-((4-butylpiperazin-1-yl)(imino)methyl)phenyl)ureido)-N-(4-sulfamoylbenzyl) benzenesulfonamide]	9 ± 4 nM	-10%	did not affect	0.76 ×10⁻⁶ cm/s	did not affect	74%	79%	37±4 h and 37±4 (4) h	<5 h	≥ 99.9%	73%	104%	5%	1%	95%	95%	inactive	6%	-5%	0%	parasitemia in treated mice at day 5 (Plasmodium vinckei; 30 mg kg^−1 per day for 4 days): 3.3%; Outcome (Plasmodium vinckei; [13]): rescrudescence; also recorded: all treated mice died of a recrudescent parasitemia; Outcome: decrease of parasitemia (Plasmodium vinckei; [13]): > 90% and 97%; remaining after 60 min of incubation [5]: almost completely metabolized; inhibition potential towards 13 human cytochrome P450 enzymes [6]: low; Inhibition of control specific binding (Y1 (h)): 0%; Inhibition of control specific binding (NOP (ORL1) (h)): 2%; IC50 [7]: 7 ± 1 nM; Inhibition of control specific binding (5-HT6 (h)): -2%; Remaining enzyme activity (CYP3A4; [9]): 74%; Remaining enzyme activity (CYP3A4; [10]): 77%; Remaining enzyme activity (CYP3A4; [11]): 66%; Remaining enzyme activity (CYP3A4; [12]): 98%; Inhibition of control specific binding (AT1 (h)): 11%; in vitro propagation / cytotoxicity [8]: did not affect; Inhibition of control specific binding (5-HT transporter (h)): 28%; Inhibition of control specific binding (b2 (h)): 7%; Inhibition of control specific binding (Cl- channel (GABA-gated)): -28%; in vitro propagation / cytotoxicity (HepG2 cells): did not affect; solubility (Solubility in water): 890 µg/mL (≈ 1420 µM)
